Experimental data published in PubChem BioAssay AID1963847 (Molecular Pharmacology Branch, DTP, NCI, 2024).

System: 415267-285-R-J2-PDC complex spheroid viability
Assay: Anticancer human tumor 415267-285-R-J2-PDC patient-derived breast carcinoma cell line growth inhibition [POLQ]
Details: for IC50: curve of first compound; for viability, T/C: stronger effect = lower value
Outline: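 PDC + HUVEC + MSC complex spheroids; POLQ inhibitors ± partner drugs; top conc. at/near clinical Cmax, else 10 microM (SN-38 1 microM), half-log dilutions; 37 degrees C, 5% CO2.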

[1] = second compound 0.0316 µM, first compound 0.0316 µM
[2] = second compound 0.0316 µM, first compound 0.1 µM
[3] = second compound 0.0316 µM, first compound 0.316 µM
[4] = second compound 0.0316 µM, first compound 1 µM
[5] = second compound 0.1 µM, first compound 0.0316 µM
[6] = second compound 0.1 µM, first compound 0.1 µM
[7] = second compound 0.1 µM, first compound 0.316 µM
[8] = second compound 0.1 µM, first compound 1 µM
[9] = second compound 0.316 µM, first compound 0.0316 µM
[10] = second compound 0.316 µM, first compound 0.1 µM
[11] = second compound 0.316 µM, first compound 0.316 µM
[12] = second compound 0.316 µM, first compound 1 µM
[13] = second compound 1 µM, first compound 0.0316 µM
[14] = second compound 1 µM, first compound 0.1 µM
[15] = second compound 1 µM, first compound 0.316 µM
[16] = second compound 1 µM, first compound 1 µM
[17] = second compound 3.16 µM, first compound 0.0316 µM
[18] = second compound 3.16 µM, first compound 0.1 µM
[19] = second compound 3.16 µM, first compound 0.316 µM
[20] = second compound 3.16 µM, first compound 1 µM
[21] = second compound 10 µM, first compound 0.0316 µM
[22] = second compound 10 µM, first compound 0.1 µM
[23] = second compound 10 µM, first compound 0.316 µM
[24] = second compound 10 µM, first compound 1 µM
[25] = second compound 0.0316 µM, first compound 3.16 µM
[26] = second compound 0.0316 µM, first compound 10 µM
[27] = second compound 0.1 µM, first compound 3.16 µM
[28] = second compound 0.1 µM, first compound 10 µM
[29] = second compound 0.316 µM, first compound 3.16 µM
[30] = second compound 0.316 µM, first compound 10 µM
[31] = second compound 1 µM, first compound 3.16 µM
[32] = second compound 1 µM, first compound 10 µM
[33] = second compound 3.16 µM, first compound 3.16 µM
[34] = second compound 3.16 µM, first compound 10 µM
[35] = second compound 10 µM, first compound 3.16 µM
[36] = second compound 10 µM, first compound 10 µM
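Further: spheroids exposed to compounds for one week before readout.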
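Wherever viability, T/C is given: luminescence used as stand-in measure of viable cells; 100% = DMSO vehicle control viability.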

Compound: CCc1c2c(nc3ccc(O)cc13)-c1cc3c(c(=O)n1C2)COC(=O)[C@]3(O)CC + Nc1ccc(C#CCN(C(=O)Cc2ncc(C(F)(F)F)cc2C(F)(F)F)c2ccc(F)cc2)nn1
- IC50 (second compound 0.0316 µM): 3.71 nM
- IC50 (second compound 0.1 µM): 4.23 nM
- IC50 (second compound 0.316 µM): 3.49 nM
- IC50 (second compound 1 µM): < 3.16 nM
- IC50 (second compound 3.16 µM): < 3.16 nM
- IC50 (second compound 10 µM): < 3.16 nM
- viability, T/C (second compound 0.0316 µM, first compound 0.00316 µM): 56.2%
- viability, T/C (second compound 0.0316 µM, first compound 0.01 µM): 12.2%
- viability, T/C [1]: 4.64%
- viability, T/C [2]: 3.13%
- viability, T/C [3]: 1.82%
- viability, T/C [4]: 1.11%
- viability, T/C (second compound 0.1 µM, first compound 0.00316 µM): 63.5%
- viability, T/C (second compound 0.1 µM, first compound 0.01 µM): 10.5%
- viability, T/C [5]: 4.81%
- viability, T/C [6]: 3.2%
- viability, T/C [7]: 2.14%
- viability, T/C [8]: 1.01%
- viability, T/C (second compound 0.316 µM, first compound 0.00316 µM): 53.6%
- viability, T/C (second compound 0.316 µM, first compound 0.01 µM): 11.3%
- viability, T/C [9]: 4.02%
- viability, T/C [10]: 2.64%
- viability, T/C [11]: 2.39%
- viability, T/C [12]: 1.12%
- viability, T/C (second compound 1 µM, first compound 0.00316 µM): 46.9%
- viability, T/C (second compound 1 µM, first compound 0.01 µM): 9.28%
- viability, T/C [13]: 4.2%
- viability, T/C [14]: 3.14%
- viability, T/C [15]: 2.27%
- viability, T/C [16]: 0.96%
- viability, T/C (second compound 3.16 µM, first compound 0.00316 µM): 42.7%
- viability, T/C (second compound 3.16 µM, first compound 0.01 µM): 9.28%
- viability, T/C [17]: 5.9%
- viability, T/C [18]: 3.54%
- viability, T/C [19]: 2.55%
- viability, T/C [20]: 0.98%
- viability, T/C (second compound 10 µM, first compound 0.00316 µM): 32.5%
- viability, T/C (second compound 10 µM, first compound 0.01 µM): 9.81%
- viability, T/C [21]: 4.81%
- viability, T/C [22]: 2.88%
- viability, T/C [23]: 2.6%
- viability, T/C [24]: 1.04%

Compound: COc1cc(C2c3cc4c(cc3C(OC3OC5COC(C)OC5C(O)C3O)C3COC(=O)C23)OCO4)cc(OC)c1O (stereo unspecified) + Nc1ccc(C#CCN(C(=O)Cc2ncc(C(F)(F)F)cc2C(F)(F)F)c2ccc(F)cc2)nn1
- IC50 (second compound 0.0316 µM): 193 nM
- IC50 (second compound 0.1 µM): 193 nM
- IC50 (second compound 0.316 µM): 194 nM
- IC50 (second compound 1 µM): 169 nM
- IC50 (second compound 3.16 µM): 175 nM
- IC50 (second compound 10 µM): 158 nM
- viability, T/C [1]: 93.4%
- viability, T/C [2]: 91.5%
- viability, T/C [3]: 19%
- viability, T/C [4]: 6.3%
- viability, T/C [25]: 4.79%
- viability, T/C [26]: 4.39%
- viability, T/C [5]: 106%
- viability, T/C [6]: 102%
- viability, T/C [7]: 11.6%
- viability, T/C [8]: 6.09%
- viability, T/C [27]: 4.34%
- viability, T/C [28]: 4.16%
- viability, T/C [9]: 107%
- viability, T/C [10]: 97.8%
- viability, T/C [11]: 14.4%
- viability, T/C [12]: 6.8%
- viability, T/C [29]: 5.09%
- viability, T/C [30]: 4.49%
- viability, T/C [13]: 106%
- viability, T/C [14]: 79.4%
- viability, T/C [15]: 15%
- viability, T/C [16]: 6.3%
- viability, T/C [31]: 4.91%
- viability, T/C [32]: 4.43%
- viability, T/C [17]: 119%
- viability, T/C [18]: 84.3%
- viability, T/C [19]: 13.4%
- viability, T/C [20]: 6.83%
- viability, T/C [33]: 4.94%
- viability, T/C [34]: 4.27%
- viability, T/C [21]: 103%
- viability, T/C [22]: 72.5%
- viability, T/C [23]: 16.2%
- viability, T/C [24]: 6.36%
- viability, T/C [35]: 4.59%
- viability, T/C [36]: 4.33%

Compound: Nc1ccn(C2OC(CO)C(O)C2(F)F)c(=O)n1 (stereo unspecified) + Nc1ccc(C#CCN(C(=O)Cc2ncc(C(F)(F)F)cc2C(F)(F)F)c2ccc(F)cc2)nn1
- IC50 (second compound 0.0316 µM): < 31.6 nM
- IC50 (second compound 0.1 µM): < 31.6 nM
- IC50 (second compound 0.316 µM): < 31.6 nM
- IC50 (second compound 1 µM): < 31.6 nM
- IC50 (second compound 3.16 µM): < 31.6 nM
- IC50 (second compound 10 µM): < 31.6 nM
- viability, T/C [1]: 31.7%
- viability, T/C [2]: 6.95%
- viability, T/C [3]: 5.45%
- viability, T/C [4]: 4.21%
- viability, T/C [25]: 5.5%
- viability, T/C [26]: 4.63%
- viability, T/C [5]: 33.3%
- viability, T/C [6]: 7.84%
- viability, T/C [7]: 5.21%
- viability, T/C [8]: 4.26%
- viability, T/C [27]: 4.99%
- viability, T/C [28]: 4.24%
- viability, T/C [9]: 42.2%
- viability, T/C [10]: 6.2%
- viability, T/C [11]: 4.82%
- viability, T/C [12]: 3.94%
- viability, T/C [29]: 6.45%
- viability, T/C [30]: 4.74%
- viability, T/C [13]: 25.8%
- viability, T/C [14]: 6.29%
- viability, T/C [15]: 5.24%
- viability, T/C [16]: 5.68%
- viability, T/C [31]: 5.32%
- viability, T/C [32]: 5.07%
- viability, T/C [17]: 17.7%
- viability, T/C [18]: 6.56%
- viability, T/C [19]: 5.45%
- viability, T/C [20]: 5.13%
- viability, T/C [33]: 5.35%
- viability, T/C [34]: 5.11%
- viability, T/C [21]: 14.4%
- viability, T/C [22]: 6.3%
- viability, T/C [23]: 5.2%
- viability, T/C [24]: 4.36%
- viability, T/C [35]: 4.56%
- viability, T/C [36]: 4.89%
